For data set [1], the system named is Mus musculus. As to the kind of experiment: In vivo inhibition of DDP4 in ICR mouse assessed as decrease in enzyme activity in ileum at 200 mg/kg,po and measured after 8 hrs using Gly-Pro-AMC as substrate by fluorescence based microplate reader assay. It counts as functional, organism-based.
The test system of data set [2] is Mus musculus. As to the kind of experiment: In vivo inhibition of DDP4 in ICR mouse assessed as decrease in enzyme activity in serum at 200 mg/kg,po and measured at 2 hrs using Gly-Pro-AMC as substrate by fluorescence based microplate reader assay. It counts as functional, organism-based.
Data set [3] has as its system Mus musculus. As to the kind of experiment: In vivo inhibition of DDP4 in ICR mouse assessed as decrease in enzyme activity in ileum at 30 mg/kg,po and measured after 8 hrs using Gly-Pro-AMC as substrate by fluorescence based microplate reader assay. It counts as functional, organism-based.
Data set [4] relates to Mus musculus. As to the kind of experiment: In vivo inhibition of DDP4 in ICR mouse assessed as decrease in enzyme activity in serum at 200 mg/kg,po and measured after 8 hrs using Gly-Pro-AMC as substrate by fluorescence based microplate reader assay. The data set is classed as functional, organism-based.
Data set [5] concerns Mus musculus. As to the kind of experiment: In vivo inhibition of DDP4 in ICR mouse assessed as decrease in enzyme activity in serum at 200 mg/kg,po and measured at 4 hrs using Gly-Pro-AMC as substrate by fluorescence based microplate reader assay. The data set is classed as functional, organism-based.
Data set [6] can be described thus: Water solubility at pH 6.8. The data set is classed as physicochemical.
The target in data set [7] is T1, G-protein coupled bile acid receptor 1 (Homo sapiens, UniProt Q8TDU6).
T1 sequence (Q8TDU6 whole entry): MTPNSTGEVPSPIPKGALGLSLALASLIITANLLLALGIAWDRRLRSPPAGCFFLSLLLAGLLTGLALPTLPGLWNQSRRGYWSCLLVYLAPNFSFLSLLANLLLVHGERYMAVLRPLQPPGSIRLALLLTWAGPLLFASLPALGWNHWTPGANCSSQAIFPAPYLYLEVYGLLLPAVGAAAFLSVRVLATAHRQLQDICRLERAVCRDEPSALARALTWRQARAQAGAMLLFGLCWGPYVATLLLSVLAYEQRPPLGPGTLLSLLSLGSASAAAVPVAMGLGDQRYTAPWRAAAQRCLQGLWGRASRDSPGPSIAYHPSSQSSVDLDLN
As to the kind of experiment: Agonist activity at human TGR5 expressed in human HEK293 cells co-expressing CRE-driven luciferase reporter gene assessed as luciferase activity incubated for 5.5 hrs by Steady-Glo based luciferase assay. It counts as functional, cell-based.

A further data set deals with Dipeptidyl peptidase 4 (Mus musculus, UniProt P28843). As to the kind of experiment: Inhibition of mouse serum DPP4 assessed as cleavage of substrate by measuring AMC release using Gly-Pro-AMC as substrate by fluorescence based microplate reader assay. The data set is classed as cell-free.
The target in data set [8] is T2, G-protein coupled bile acid receptor 1 (Mus musculus, UniProt Q80SS6).
T2 sequence (Q80SS6 whole entry): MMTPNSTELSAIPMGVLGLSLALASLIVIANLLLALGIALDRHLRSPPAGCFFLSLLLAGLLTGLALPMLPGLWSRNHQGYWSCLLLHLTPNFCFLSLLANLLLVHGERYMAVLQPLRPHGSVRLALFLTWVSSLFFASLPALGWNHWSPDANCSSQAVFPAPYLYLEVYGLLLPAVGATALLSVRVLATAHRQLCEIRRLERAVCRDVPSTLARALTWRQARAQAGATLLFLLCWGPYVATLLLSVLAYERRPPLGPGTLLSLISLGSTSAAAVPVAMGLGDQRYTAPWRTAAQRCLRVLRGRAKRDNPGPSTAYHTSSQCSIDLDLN
As to the kind of experiment: Agonist activity at mouse TGR5 expressed in human HEK293 cells co-expressing CRE-driven luciferase reporter gene assessed as luciferase activity incubated for 5.5 hrs by Steady-Glo based luciferase assay. The data set is classed as functional, cell-based. For orientation: Reporter assays use an easily measured gene product as a stand-in for the process of interest.

For data set [9], the system named is Mus musculus. As to the kind of experiment: Induction of gut restriction in overnight fasted ICR mouse assessed as effect on gallbladder-filling by measuring bile weight at 50 mg/kg, po and measured after 4 hrs by Vernier caliper analysis. It counts as functional, organism-based.
For data set [10], the system named is Mus musculus. As to the kind of experiment: Induction of gut restriction in overnight fasted ICR mouse assessed as effect on gallbladder-filling by measuring gallbladder volume at 50 mg/kg, po and measured after 4 hrs by Vernier caliper analysis. The data set is classed as functional, organism-based.

Activity calls are given as the source filed them. The calls are words filed in the database; no cut-off is given here.

The record followed here is ChEMBL document CHEMBL5338718, “Design and exploration of gut-restricted bifunctional molecule with TGR5 agonistic and DPP4 inhibitory effects for treating ulcerative colitis” (Eur J Med Chem, 2022).

Dipeptidyl peptidase 4, sequence (P28843 whole entry): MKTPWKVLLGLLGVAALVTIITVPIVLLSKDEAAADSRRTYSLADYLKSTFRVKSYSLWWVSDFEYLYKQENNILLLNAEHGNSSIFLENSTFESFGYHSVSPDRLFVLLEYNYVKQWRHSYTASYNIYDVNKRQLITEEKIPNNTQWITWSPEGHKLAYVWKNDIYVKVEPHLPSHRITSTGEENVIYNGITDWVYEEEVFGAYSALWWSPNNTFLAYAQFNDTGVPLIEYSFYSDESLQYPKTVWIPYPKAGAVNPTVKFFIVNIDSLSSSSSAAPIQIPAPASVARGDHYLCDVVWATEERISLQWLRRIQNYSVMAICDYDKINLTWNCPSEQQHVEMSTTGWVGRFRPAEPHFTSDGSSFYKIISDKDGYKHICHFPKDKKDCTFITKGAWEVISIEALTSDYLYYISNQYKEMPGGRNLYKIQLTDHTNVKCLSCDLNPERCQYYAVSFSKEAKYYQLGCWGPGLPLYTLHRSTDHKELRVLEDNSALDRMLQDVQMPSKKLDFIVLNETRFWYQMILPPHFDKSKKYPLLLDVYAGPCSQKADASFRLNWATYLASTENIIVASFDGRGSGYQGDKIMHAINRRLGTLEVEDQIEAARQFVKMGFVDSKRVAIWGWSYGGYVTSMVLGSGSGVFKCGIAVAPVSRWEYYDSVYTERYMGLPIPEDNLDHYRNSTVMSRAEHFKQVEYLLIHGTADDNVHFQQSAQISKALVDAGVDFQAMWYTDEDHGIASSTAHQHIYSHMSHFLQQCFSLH

As for `N[C@@H](CC(=O)N1CCn2c(nnc2C(F)(F)F)C1)Cc1cc(F)c(F)cc1F`, the inhibition entry in the data set on Mus musculus [1], with Mus musculus [2], in the data set on Mus musculus [3], in the data set with Mus musculus [4] and in the data set with Mus musculus [5] was “Active” throughout.
The compound `N[C@@H](CC(=O)N1CCCN(CC(=O)NCCOCCOCCOCCOCCOCCOCCOCCNC(=O)CCc2cc(Cl)c(Oc3ccsc3C(=O)N3CCN(C4CC4)c4ccccc43)cc2Cl)C(=O)C1Cc1ccccc1)Cc1cc(F)c(F)cc1F` (mixture of isomers) showed a solubility in [6] of 20 µM. The EC50 in data set [7] is 3.6 nM; in [8] it was 2.1 nM. Further, the IC50 at Dipeptidyl peptidase 4 is 103 nM.
Turning to `CC1C(=O)N(CC(=O)NCCOCCOCCOCCOCCOCCNC(=O)CCc2cc(Cl)c(Oc3ccsc3C(=O)N3CCN(C4CC4)c4ccccc43)cc2Cl)CCCN1C(=O)C[C@H](N)Cc1cc(F)c(F)cc1F` (mixture of isomers), the solubility in data set [6] was 50 µM. For the same compound, the EC50 in [7] came out at 2.5 nM; in [8], 2.3 nM. Further, on Dipeptidyl peptidase 4, the IC50 was 57.5 nM.
In data set [6], `CC1C(=O)N(CC(=O)NCCOCCOCCOCCOCCOCCOCCOCCNC(=O)CCc2cc(Cl)c(Oc3ccsc3C(=O)N3CCN(C4CC4)c4ccccc43)cc2Cl)CCCN1C(=O)C[C@H](N)Cc1cc(F)c(F)cc1F` (mixture of isomers) showed a solubility of 50 µM. Further, the EC50 in [7] was found to be 2.8 nM; in [8], 2.1 nM. For the same compound, the IC50 at Dipeptidyl peptidase 4 is 54.8 nM.
Turning to `CC1C(=O)NCCCN1C(=O)C[C@H](N)Cc1cc(F)c(F)cc1F` (mixture of isomers), the EC50 in data set [7] and in data set [8] was over 1000 nM throughout. The IC50 at Dipeptidyl peptidase 4 turned out to be 10.4 nM.
As to `N[C@@H](CC(=O)N1CCCN(CC(=O)NCCOCCOCCOCCOCCOCCOCCNC(=O)CCc2cc(Cl)c(Oc3ccsc3C(=O)N3CCN(C4CC4)c4ccccc43)cc2Cl)C(=O)C1Cc1ccccc1)Cc1cc(F)c(F)cc1F` (mixture of isomers), the solubility in [6] came to 20 µM. In addition, the EC50 in [7] came to 3.7 nM; in [8], 2.3 nM. In addition, the IC50 at Dipeptidyl peptidase 4 stood at 112 nM.
For the compound `N[C@@H](CC(=O)N1CCCNC(=O)C1Cc1ccccc1)Cc1cc(F)c(F)cc1F` (mixture of isomers), at Dipeptidyl peptidase 4, the IC50 was 0.8 nM.
For the compound `N[C@@H](CC(=O)N1CCCN(CC(=O)NCCOCCOCCOCCOCCOCCNC(=O)CCc2cc(Cl)c(Oc3ccsc3C(=O)N3CCN(C4CC4)c4ccccc43)cc2Cl)C(=O)C1Cc1ccccc1)Cc1cc(F)c(F)cc1F` (mixture of isomers), in [6], the solubility was determined as 10 µM. For the same compound, the EC50 in data set [7] came to 4.9 nM; in data set [8] it was 2.7 nM. At Dipeptidyl peptidase 4, the IC50 amounted to 124 nM.
Regarding `C.N[C@@H](CC(=O)N1CCCN(CC(=O)NCCOCCOCCOCCOCCOCCOCCOCCOCCNC(=O)CCc2cc(Cl)c(Oc3ccsc3C(=O)N3CCN(C4CC4)c4ccccc43)cc2Cl)C(=O)C1Cc1ccccc1)Cc1cc(F)c(F)cc1F` (mixture of isomers), the values for the EC50 in [7] and in [8] were 3.8 nM and 2.3 nM, respectively. Moreover, the half-maximal inhibitory concentration (IC50) at Dipeptidyl peptidase 4 came to 104 nM.
As to `CC1C(=O)N(CC(=O)NCCOCCOCCOCCOCCOCCOCCNC(=O)CCc2cc(Cl)c(Oc3ccsc3C(=O)N3CCN(C4CC4)c4ccccc43)cc2Cl)CCCN1C(=O)C[C@H](N)Cc1cc(F)c(F)cc1F.F` (mixture of isomers), the solubility in data set [6] is 50 µM. Further, the EC50 in [7] turned out to be 2.8 nM; in [8], 2.3 nM. Further, on Dipeptidyl peptidase 4, the IC50 came out at 60.1 nM.
As for `O=C(O)CCc1cc(Cl)c(Oc2ccsc2C(=O)N2CCN(C3CC3)c3ccccc32)cc1Cl`, the EC50 in [7] was determined as 11.2 nM; in data set [8], 10.5 nM. Further, the IC50 at Dipeptidyl peptidase 4 is over 10000 nM.
In turn, `N[C@@H](CC(=O)N1CCCN(CC(=O)NCCOCCOCCOCCNC(=O)CCc2cc(Cl)c(Oc3ccsc3C(=O)N3CCN(C4CC4)c4ccccc43)cc2Cl)C(=O)C1Cc1ccccc1)Cc1cc(F)c(F)cc1F` (mixture of isomers) displayed a solubility in [6] of 10 µM. Further, the EC50 in [7] is 6.1 nM; in data set [8], 3.7 nM. Also, the IC50 at Dipeptidyl peptidase 4 is 113 nM.
As to `CC1C(=O)N(CC(=O)NCCN(C)C(=O)CCc2cc(Cl)c(Oc3ccsc3C(=O)N3CCN(C4CC4)c4ccccc43)cc2Cl)CCCN1C(=O)C[C@H](N)Cc1cc(F)c(F)cc1F` (mixture of isomers), the values for the EC50 in data set [7] and in data set [8] were 14.9 nM and 6 nM, respectively. Further, the IC50 at Dipeptidyl peptidase 4 is 224 nM.
As for `CC1C(=O)N(CC(=O)NCCOCCOCCOCCNC(=O)CCc2cc(Cl)c(Oc3ccsc3C(=O)N3CCN(C4CC4)c4ccccc43)cc2Cl)CCCN1C(=O)C[C@H](N)Cc1cc(F)c(F)cc1F` (mixture of isomers), the EC50 was 4.5 nM in data set [7] and 4.3 nM in data set [8]. Moreover, the IC50 at Dipeptidyl peptidase 4 was 119 nM.
`CC1C(=O)N(CC(=O)NCCOCCOCCOCCOCCOCCOCCOCCOCCNC(=O)CCc2cc(Cl)c(Oc3ccsc3C(=O)N3CCN(C4CC4)c4ccccc43)cc2Cl)CCCN1C(=O)C[C@H](N)Cc1cc(F)c(F)cc1F` (mixture of isomers) displayed a solubility in [6] of 50 µM. Moreover, the values for the EC50 in data set [7] and in [8] were 3.2 nM and 2.4 nM, respectively. The IC50 on Dipeptidyl peptidase 4 amounted to 64.8 nM.
`O=C(c1cnccc1Oc1cc(Cl)ccc1Cl)N1CCN(C2CC2)c2ccccc21`: the result in the data set on Mus musculus [9] and with Mus musculus [10] was inactive.

A word on the solubility: it is how much of the substance goes into solution per volume. By EC50 is commonly meant the concentration at which the effect is half-maximal. A word on the IC50: it is the midpoint of a concentration-inhibition curve.
